From US9302999B2, “Substituted triazoles as herbicides” (E. I. DU PONT DE NEMOURS AND COMPANY, priority 2012, dated 2016)

Experiments:
Type in all cases: in vivo
[1] = test system: galium (catchweed bedstraw, Galium aparine); assay: Test D pre-/postemergence: galium
Excerpt: (§1) Seeds of plant species selected from bluegrass (annual bluegrass, Poa annua), blackgrass (Alopecurus myosuroides), canarygrass (Phalaris minor), chickweed (common chickweed, Stellaria media), galium (catchweed bedstraw, Galium aparine), bromegrass, downy (downy bromegrass, Bromus tectorum), field poppy (Papaver rhoeas), field violet (Viola arvensis), foxtail, green (green foxtail, Setaria viridis), deadnettle (henbit deadnettle, Lamium amplexicaule), ryegrass, Italian (Italian ryegrass, Lolium multiflorum), kochia (Kochia scoparia), lambsquarters (Chenopodium album), oilseed rape (Brassica napus), pigweed (Amaranthus retroflexus), Russian thistle (Salsola iberica), chamomile (scentless chamomile, Matricaria inodora), speedwell (bird's-eye speedwell, Veronica persica), barley, spring (spring barley, Hordeum vulgare), wheat, spring (spring wheat, Triticum aestivum), buckwheat, wild (wild buckwheat, Polygonum convolvulus), mustard, wild (wild mustard, Sinapis arvensis), oat, wild (wild oat, Avena fatua), radish, wild (wild radish, Raphanus raphanistrum), windgrass (Apera spica-venti), barley, winter (winter barley, Hordeum vulgare), and wheat, winter (winter wheat, Triticum aestivum) were planted into a silt loam soil and treated preemergence with test chemicals formulated in a non-phytotoxic solvent mixture which included a surfactant. At the same time, these same crop and weed species were planted in pots containing the planting medium comprising spaghnum peat moss, vermiculite, wetting agent and starter nutrients and treated with postemergence applications of the test chemicals formulated in the same manner. Plants ranged in height from 2 to 18 cm (1- to 4-leaf stage).
(§2) Treated plants and controls were maintained in a controlled growth environment for 14 to 21 days after which time all species were compared to controls and visually evaluated. Plant response ratings, summarized in Table D, are based on a scale of 0 to 100 where 0 is no effect and 100 is complete control. A dash (-) response means no test result.

kochia (Kochia scoparia) = assay: Test D pre-/postemergence: kochia
Excerpt: as §1, §2

soybean (Glycine max) = assay: Test C pre-/postemergence: soybean
Excerpt: (§3) Seeds of plant species selected from blackgrass (Alopecurus myosuroides), bromegrass, downy (downy bromegrass, Bromus tectorum), foxtail, green (green foxtail, Setaria viridis), ryegrass, Italian (Italian ryegrass, Lolium multiflorum), winter wheat (Triticum aestivum), wild oat (Avena fatua), galium (catchweed bedstraw, Galium aparine), bermudagrass (Cynodon dactylon), surinam grass (Brachiaria decumbens), cocklebur (common cocklebur, Xanthium strumarium), corn (Zea mays), large crabgrass (Digitaria sanguinalis), woolly cupgrass (Eriochloa villosa), foxtail, giant (giant foxtail, Setaria faberii), goosegrass (Eleusine indica), johnsongrass (Sorghum halepense), kochia (Kochia scoparia), lambsquarters (Chenopodium album), morningglory (Ipomoea coccinea), nightshade (eastern black nightshade, Solanum ptycanthum), nutsedge, yellow (yellow nutsedge, Cyperus esculentus), pigweed (Amaranthus retroflexus), ragweed (common ragweed, Ambrosia elation), soybean (Glycine max), common (oilseed) sunflower (Helianthus annuus), Russian thistle (Salsola kali) and velvetleaf (Abutilon theophrasti) were planted into a blend of loam soil and sand and treated preemergence with test chemicals formulated in a non-phytotoxic solvent mixture which included a surfactant.
(§4) At the same time, plants selected from these crop and weed species and also barley (winter barley, Hordeum vulgare), canarygrass (Phalaris minor), chickweed (common chickweed, Stellaria media) windgrass (Apera spica-venti) and deadnettle (henbit deadnettle, Lamium amplexicaule) were planted in pots containing Redi-Earth® planting medium (Scotts Company, 14111 Scottslawn Road, Marysville, Ohio 43041) comprising spaghnum peat moss, vermiculite, wetting agent and starter nutrients and treated with postemergence applications of test chemicals formulated in the same manner. Plants ranged in height from 2 to 18 cm (1- to 4-leaf stage) for postemergence treatments.
as §2, with “greenhouse” for “controlled growth environment”, “13” for “14”, “15 days,” for “21 days”, “C,” for “D,”

[2] = test system: foxtail, giant (giant foxtail, Setaria faberii); assay: Test C pre-/postemergence: foxtail, giant
Excerpt: as §3, §4
as §2, with “greenhouse” for “controlled growth environment”, “13” for “14”, “15 days,” for “21 days”, “C,” for “D,”

[3] = test system: mustard, wild (wild mustard, Sinapis arvensis); assay: Test D pre-/postemergence: mustard, wild
Excerpt: as §1, §2

[4] = test system: blackgrass (Alopecurus myosuroides); assay: Test D pre-/postemergence: blackgrass
Excerpt: as §1, §2

[5] = test system: bromegrass, downy (downy bromegrass, Bromus tectorum); assay: Test D pre-/postemergence: bromegrass, downy
Excerpt: as §1, §2

[6] = test system: oilseed rape (Brassica napus); assay: Test D pre-/postemergence: oilseed rape
Excerpt: as §1, §2

[7] = test system: nightshade (eastern black nightshade, Solanum ptycanthum); assay: Test C pre-/postemergence: nightshade; conditions: Preemergence
Excerpt: as §3, §4
as §2, with “greenhouse” for “controlled growth environment”, “13” for “14”, “15 days,” for “21 days”, “C,” for “D,”

[8] = Postemergence, 31 g ai/ha, scale 0 to 100 (0 no effect, 100 complete control)
[9] = Postemergence, 62 g ai/ha, scale 0 to 100 (0 no effect, 100 complete control)
[10] = Postemergence, 125 g ai/ha, scale 0 to 100, 0 no effect, 100 complete control
[11] = Postemergence, 250 g ai/ha, scale 0 to 100 (0 no effect, 100 complete control)
[12] = Postemergence, 16 g ai/ha, scale 0 to 100
[13] = Preemergence, 16 g ai/ha, scale 0 to 100 (0 no effect, 100 complete control)
[14] = Preemergence, 31 g ai/ha, scale 0 to 100 (0 no effect, 100 complete control)
[15] = Preemergence, 125 g ai/ha, scale 0 to 100
[16] = Preemergence, 250 g ai/ha, scale 0 to 100
[17] = Preemergence, 62 g ai/ha, scale 0 to 100
[18] = Postemergence, 250 g ai/ha, scale 0 to 100
[19] = Preemergence, 31 g ai/ha, scale of 0 to 100, 0 is no effect, 100 is complete control
[20] = Preemergence, 62 g ai/ha, scale of 0 to 100, 0 is no effect, 100 is complete control
[21] = Preemergence, 125 g ai/ha, scale 0 to 100, 0 no effect, 100 complete control
[22] = Preemergence, 250 g ai/ha, scale 0 to 100, 0 no effect, 100 complete control

Structure (SMILES): Cc1nn(-c2ccc(F)cc2)nc1Cc1ccnc(C(F)(F)F)c1 [Compound 16, 4-[[2-(4-fluorophenyl)-5-methyl-2H-1,2,3-triazol-4-yl]methyl]-2-(trifluoromethyl)pyridine]
- Plant response rating: Galium [1, 8]: 40
- Plant response rating: Galium [1, 9]: 50
- Plant response rating: Galium [1, 10]: 60
- Plant response rating: Galium [1, 11]: 70
- Plant response rating, Galium [1, 12]: 20
- Plant response rating, Galium [1, 13]: 0
- Plant response rating, Galium [1, 14]: 0
- Plant response rating, Galium [1, 15]: 20
- Plant response rating, Galium [1, 16]: 20
- Plant response rating: Kochia (kochia (Kochia scoparia); [8]): 90
- Plant response rating: Kochia (kochia (Kochia scoparia); [9]): 95
- Plant response rating: Kochia (kochia (Kochia scoparia); [10]): 75
- Plant response rating: Kochia (kochia (Kochia scoparia); [11]): 95
- Plant response rating, Kochia (kochia (Kochia scoparia); [12]): 85
- Plant response rating, Kochia (kochia (Kochia scoparia); [13]): 30
- Plant response rating, Kochia (kochia (Kochia scoparia); [14]): 30
- Plant response rating, Kochia (kochia (Kochia scoparia); [17]): 90
- Plant response rating, Kochia (kochia (Kochia scoparia); [15]): 90
- Plant response rating, Kochia (kochia (Kochia scoparia); [16]): 100
- Plant response rating, Soybean (soybean (Glycine max); [8]): 20
- Plant response rating, Soybean (soybean (Glycine max); [9]): 25
- Plant response rating, Soybean (soybean (Glycine max); [10]): 35
- Plant response rating, Soybean (soybean (Glycine max); [18]): 35
- Plant response rating, Foxtail, Giant [2, 8]: 40
- Plant response rating, Foxtail, Giant [2, 9]: 40
- Plant response rating, Foxtail, Giant [2, 10]: 50
- Plant response rating, Foxtail, Giant [2, 18]: 50
- Plant response rating: Mustard, Wild [3, 9]: 90
- Plant response rating: Mustard, Wild [3, 11]: 100
- Plant response rating, Mustard, Wild [3, 12]: 10
- Plant response rating, Mustard, Wild [3, 13]: 0
- Plant response rating, Mustard, Wild [3, 14]: 0
- Plant response rating, Mustard, Wild [3, 17]: 100
- Plant response rating, Mustard, Wild [3, 15]: 100
- Plant response rating, Mustard, Wild [3, 16]: 100
- Plant response rating: Blackgrass [4, 8]: 10
- Plant response rating: Blackgrass [4, 9]: 20
- Plant response rating: Blackgrass [4, 10]: 25
- Plant response rating: Blackgrass [4, 11]: 40
- Plant response rating, Blackgrass [4, 12]: 5
- Plant response rating, Blackgrass [4, 13]: 0
- Plant response rating, Blackgrass [4, 14]: 0
- Plant response rating, Blackgrass [4, 17]: 40
- Plant response rating, Blackgrass [4, 15]: 70
- Plant response rating, Blackgrass [4, 16]: 100
- Plant response rating: Bromegrass, Downy [5, 8]: 10
- Plant response rating: Bromegrass, Downy [5, 9]: 20
- Plant response rating: Bromegrass, Downy [5, 10]: 40
- Plant response rating: Bromegrass, Downy [5, 11]: 50
- Plant response rating, Bromegrass, Downy [5, 12]: 0
- Plant response rating, Bromegrass, Downy [5, 13]: 0
- Plant response rating, Bromegrass, Downy [5, 14]: 20
- Plant response rating, Bromegrass, Downy [5, 17]: 25
- Plant response rating, Bromegrass, Downy [5, 15]: 25
- Plant response rating, Bromegrass, Downy [5, 16]: 40
- Plant response rating: Oilseed Rape [6, 8]: 70
- Plant response rating: Oilseed Rape [6, 9]: 95
- Plant response rating: Oilseed Rape [6, 10]: 100
- Plant response rating: Oilseed Rape [6, 11]: 100
- Plant response rating, Oilseed Rape [6, 12]: 40
- Plant response rating, Oilseed Rape [6, 13]: 0
- Plant response rating, Oilseed Rape [6, 14]: 0
- Plant response rating, Oilseed Rape [6, 17]: 50
- Plant response rating, Oilseed Rape [6, 15]: 50
- Plant response rating, Oilseed Rape [6, 16]: 100

Structure (SMILES): Cc1nn(-c2ccc(C(F)(F)F)cc2)nc1Cc1ccnc(C(F)(F)F)c1 [Compound 47, 4-[[5-methyl-2-[4-(trifluoromethyl)phenyl]-2H-1,2,3-triazol-4-yl]methyl]-2-(trifluoromethyl)pyridine]
- Plant response rating, Nightshade ([7]; 31 g ai/ha, scale of 0 to 100, 0 is no effect, 100 is complete control): 45
- Plant response rating, Nightshade ([7]; 62 g ai/ha, scale of 0 to 100, 0 is no effect, 100 is complete control): 98
- Plant response rating, Nightshade ([7]; 125 g ai/ha, scale 0 to 100, 0 no effect, 100 complete control): 98
- Plant response rating, Nightshade ([7]; 250 g ai/ha, scale 0 to 100, 0 no effect, 100 complete control): 98
- Plant response rating, Soybean (soybean (Glycine max); [8]): 40
- Plant response rating, Soybean (soybean (Glycine max); [9]): 70
- Plant response rating, Soybean (soybean (Glycine max); [10]): 75
- Plant response rating, Soybean (soybean (Glycine max); [18]): 75
- Plant response rating, Soybean (soybean (Glycine max); [19]): 0
- Plant response rating, Soybean (soybean (Glycine max); [20]): 0
- Plant response rating, Soybean (soybean (Glycine max); [21]): 5
- Plant response rating, Soybean (soybean (Glycine max); [22]): 35
- Plant response rating, Foxtail, Giant [2, 8]: 65
- Plant response rating, Foxtail, Giant [2, 9]: 65
- Plant response rating, Foxtail, Giant [2, 10]: 80
- Plant response rating, Foxtail, Giant [2, 18]: 98
- Plant response rating, Foxtail, Giant [2, 19]: 95
- Plant response rating, Foxtail, Giant [2, 20]: 100
- Plant response rating, Foxtail, Giant [2, 21]: 100
- Plant response rating, Foxtail, Giant [2, 22]: 100
